Experiments:
[1] = Pharmacokinetics after cutaneous administration to mice, plasma LC/MS-MS; type: in vivo; details: OF1 or C57/BL6 mice, 30 mg/kg, single administration
Description: The pharmacokinetic profile of the compounds according to the invention is evaluated after cutaneous administration, to OF1 or C57/BL6 mice, at a concentration of 30 mg/kg. The systemic exposure of the compounds is evaluated after a single administration to the animal anaesthetized beforehand with pentobarbital. The blood is collected from the vena cava and then transferred into plastic tubes containing lithium heparin. After centrifugation (2000×g for 10 minutes at 8° C.), the concentration of the compounds in the plasma is quantified by LC/MS-MS.

[2] = system: BALB/c J mice; test: Model of cellulose implant in mice (haemoglobin concentration in the implant, angiogenesis); type: in vivo
Description: This model is an adaptation of the model described by Andrade et al. (Microvascular Research, 1997, 54, 253-61) for testing pharmacological products capable of activating the onset of angiogenesis.
The animals (white consanguineous BALB/c J mice) are anaesthetized with a xylazine (Rompun®, 10 mg/kg)/ketamine (Imalgene® 1000, 100 mg/kg) mixture intraperitoneally. The animal's back is shaved and disinfected with Hexomedine®. An air pocket is created subcutaneously on the mouse's back by injecting 5 ml of sterile air. An incision of about 2 cm at the top of the animal's back is made in order to introduce a sterile cellulose implant (disk 1 cm in diameter, 2 mm thick, Cellspon® ref. 0501) impregnated with 50 μl of sterile solution containing the test product. […]
Seven days after inserting the sponge, the mice are sacrificed by means of a lethal dose of pentobarbital sodium (CEVA Santé Animale), administered intraperitoneally. […] On the day of the assay, the tubes are again centrifuged after thawing and the haemoglobin concentration is measured with the Drabkin reagent (Sigma, volume for volume) by reading on a spectrophotometer at 405 nm against a standard range of bovine haemoglobin (Sigma).
The haemoglobin concentration in each sample is expressed in mg/ml from the polynomial regression produced from the range. The results are expressed as a mean value (±sem) for each group. […]

Methyl (sodium 2-O-sodium sulfonato-α-L-idopyranosyluronate)-(1→4)-(2-acetamido-2-deoxy-6-O-sodium sulfonato-α-D-glucopyranosyl)-[(1→4)-(sodium 2-O-sodium sulfonato-α-L-idopyranosyluronate)-(1→4)-(2-acetamido-2-deoxy-6-O-sodium sulfonato-α-D-glucopyranosyl)]2-(1→4)-(sodium 2-O-sodium sulfonato-α-L-idopyranosyluronate)-(1→4)-2-acetamido-2-deoxy-6-O-sodium sulfonato-α-D-glucopyranoside [Compound 7]
AUC (0-Clast) ([1]; plasma): 22 000 ng · h/mL | T1/2 ([1]; plasma): 24 min | Plasma conc., t = 4 h ([1]; plasma at 4 hours): 0.425 µg/mL | specific activity in the cellulose implant model (active at) ([2]; BALB/c J mice, subcutaneous cellulose implant, haemoglobin assay after seven days): 15 ng/site | activity relative to the fully sulfated analogue (all —NH-acyl groups replaced with —NH—SO3— groups) ([2]; cellulose implant in mice): greater than 21%
